Entries after “also recorded” stand apart in the source; their conditions may differ. Values belong to the molecule of their own block, whether it stands above or below them.
B2: mouse melatonin receptor type 2 (MT2), Rluc8 and YFP fusion proteins (receptor, UniProt Q8CIQ6 1-364, looked up)
chain: MPENSSIPNCCEASGLAARPSWSGSAGARPPVTARAPWVAPMLSTVVVVTTAVDFVGNLLVILSVLRNRKLRNAGNLFVVSLALADLVIALYPYPLILVAIIRDGWVLGEAHCKASAFVMGLSVIGSVFNITAIAINRYCCICHSTTYHRVCSHWYTPIYISLVWLLTLVALVPNFFVGSLEYDPRIYSCTFIQTASTQYTAAVVAIHFLLPMAVVSFCYLRIWVLVLQARRKAKATRKLRLRPSDLRSFLTMFAVFVVFAICWAPLNCIGLAVAINPEAMALQVPEGLFVTSYFLAYFNSCLNAIVYGLLNQNFRREYKRILLAIWNTRRCIQHASKHCLTEERQGPTPPAARATVPVKEGAL
B3: mouse melatonin receptor type 1 (MT1), Rluc8 and YFP fusion proteins (receptor, UniProt Q61184 1-353, looked up)
chain: MKGNVSELLNATQQAPGGGEGGRPRPSWLASTLAFILIFTIVVDILGNLLVILSVYRNKKLRNSGNIFVVSLAVADLVVAVYPYPLVLTSILNNGWNLGYLHCQVSAFLMGLSVIGSIFNITGIAMNRYCYICHSLKYDKIYSNKNSLCYVFLIWMLTLIAIMPNLQTGTLQYDPRIYSCTFTQSVSSAYTIAVVVFHFIVPMIIVIFCYLRIWVLVLQVRRRVKPDNKPKLKPQDFRNFVTMFVVFVLFAICWAPLNLIGLIVASDPATMVPRIPEWLFVASYYLAYFNSCLNAIIYGLLNQNFRKEYKKIIVSLCTAKMFFVESSNEEADKIKCKPSPLIPNNNLIKVDSV

Tests used:
[1] = system: mouse photoreceptors; experiment: Photoreceptor response; assay type: in vivo; conditions: for effect on the melatonin-induced photoreceptor response (a-wave at 7 ms): intravitreal injection of the agent plus melatonin; for mimicking of the photoreceptor response to melatonin (a-wave at 7 ms): intravitreal injection of the agent
[2] = target: T1, MT1/MT2 heteromers (Mus musculus, UniProt Q61184+Q8CIQ6); experiment: cell-based
[3] = system: C3H-f+/+ mice; experiment: Scotopic; assay type: in vivo, mouse; conditions: for effect on the melatonin-induced increase in the amplitude of the a- and b-wave: intravitreal antagonist, then melatonin i.p. 1 mg/kg; for amplitude of the a- and b-wave, compound alone: intravitreal injection alone, no melatonin
[4] = target: T2, MT1 (Mus musculus, UniProt Q61184); experiment: cell-based
[5] = target: mouse MT1 receptor (Mus musculus, UniProt Q61184); experiment: Competition of 2-[125I]iodo-melatonin binding at mouse MT1; conditions: mouse MT1, membranes of HEK293 cells
[6] = target: T3, mouse MT2 receptor (Mus musculus, UniProt Q8CIQ6); experiment: Competition of 2-[125I]iodo-melatonin binding at mouse MT2; conditions: mouse MT2, membranes of HEK293 cells
T3 sequence (Q8CIQ6 1-364): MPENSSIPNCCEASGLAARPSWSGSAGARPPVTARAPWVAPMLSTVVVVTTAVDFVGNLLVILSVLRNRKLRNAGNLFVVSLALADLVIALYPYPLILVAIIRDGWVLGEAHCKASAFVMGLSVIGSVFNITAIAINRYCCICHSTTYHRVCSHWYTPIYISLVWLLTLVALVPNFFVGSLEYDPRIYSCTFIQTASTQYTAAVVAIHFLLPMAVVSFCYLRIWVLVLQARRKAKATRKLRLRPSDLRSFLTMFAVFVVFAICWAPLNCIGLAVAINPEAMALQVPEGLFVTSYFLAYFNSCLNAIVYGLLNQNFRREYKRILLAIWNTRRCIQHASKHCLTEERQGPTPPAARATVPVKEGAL

[7] = target: T2, MT1; conditions: HEK293T cells expressing MT1 alone, compared with MT1/MT2 heteromers
[8] = target: T2, MT1; conditions: HEK293T cells expressing MT1 alone
[9] = target: wild-type MT1 receptor with the inactive MT2-P95L mutant (Mus musculus, UniProt Q61184); conditions: cells coexpressing wild-type MT1 with inactive MT2-P95L mutant
[10] = target: T4, MT2 (Mus musculus, UniProt Q8CIQ6); experiment: Inositol phosphate production, HEK293T cells expressing MT2 alone; assay type: cell-based
T4 sequence (Q8CIQ6 1-364): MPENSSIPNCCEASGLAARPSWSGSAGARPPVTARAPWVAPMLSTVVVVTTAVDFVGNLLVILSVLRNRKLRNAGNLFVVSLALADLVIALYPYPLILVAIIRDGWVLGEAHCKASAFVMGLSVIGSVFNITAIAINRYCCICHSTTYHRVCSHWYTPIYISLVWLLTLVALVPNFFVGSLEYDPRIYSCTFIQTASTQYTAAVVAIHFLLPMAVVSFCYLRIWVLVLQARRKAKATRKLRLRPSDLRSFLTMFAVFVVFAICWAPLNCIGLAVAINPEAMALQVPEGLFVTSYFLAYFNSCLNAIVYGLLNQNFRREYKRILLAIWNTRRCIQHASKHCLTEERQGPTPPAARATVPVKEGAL

[11] = target: MT1 and MT2 receptors (Mus musculus, UniProt Q61184+Q8CIQ6)
[12] = system: MT2-/- mice; experiment: Scotopic; assay type: in vivo, mouse; conditions: i.p. 1 mg/kg at ZT6, 1 h dark adaptation
[13] = system: C3H-f+/+ mice; conditions: exogenous administration during the day, wild-type mice; cited from earlier work
[14] = target: T1, MT1/MT2 heteromers
[15] = target: B3; experiment: FRET or BRET
[16] = target: B2; experiment: FRET or BRET
[17] = target: the molecule itself; experiment: FRET or BRET

Molecule: Cl.NC(CSSCC(N)C(=O)N1CCn2cc(-c3ccccc3)nc2C1CC1CCCCC1)C(=O)N1CCn2cc(-c3ccccc3)nc2C1CC1CCCCC1 (stereo not drawn) [BIM 46187, 7-[2-amino-1-oxo-3-thio-propyl]-8-cyclohexylmethyl-2-phenyl-5,6,7,8-tetrahydro-i midazo-[1,2a]-pyrazine dimer, hydrochloride]
- effect on the melatonin-induced photoreceptor response (a-wave at 7 ms) [1]: inhibited

Molecule: Nc1ncnc2c1nc(Br)n2[C@@H]1O[C@@H]2COP(=O)(O)O[C@H]2[C@H]1O [8-br-cAMP, 8-bromoadenosine 3′,5′-cyclic monophosphate]
- effect on the melatonin-induced photoreceptor response (a-wave at 7 ms) [1]: had no effect

- IC50 [2]: 4 ± 3.5 nM
- effect on the melatonin-induced increase in the amplitude of the a- and b-wave [3]: prevented the increase
- amplitude of the a- and b-wave, compound alone [3]: did not produce any significant changes
- IC50 [4]: 5.8 ± 7.7 nM
Molecule: CCC(=O)N[C@@H]1Cc2ccccc2[C@H](c2ccccc2)C1 (relative stereo) [4P-PDOT, cis-4-Phenyl-2-propionamidotetralin]

Molecule: CCCCCCCCCCCCCC(=O)O[C@@H]1[C@@H](C)[C@@]2(O)[C@@H](C=C(CO)C[C@]3(O)C(=O)C(C)=C[C@@H]23)[C@@H]2C(C)(C)[C@]12OC(C)=O [PMA, Phorbol 12-myristate 13-acetate]
- mimicking of the photoreceptor response to melatonin (a-wave at 7 ms) [1]: mimicked
- effect on the melatonin-induced photoreceptor response (a-wave at 7 ms) [1]: significantly reduced

- Ki [5]: 73 ± 23 nM
- amplitude of the a- or b-wave ([3]; intravitreal 50 nM (MT2-selective concentration), C3H-f+/+ mice): did not increase
- amplitude of the a- and b-wave ([3]; intravitreal 5 μM (activates MT1 and MT2), C3H-f+/+ mice): significantly increased
- Ki [6]: 0.052 ± 0.015 nM
Molecule: CCCC(=O)NCCc1c2n(c3ccc(OC)cc13)Cc1ccccc1-2 [IIK7]

- block of the effect of exogenous melatonin on photoreceptors ([1]; intravitreal PKC inhibitor plus melatonin): about 40%
Molecule: CN1CCCC1CCn1cc(C2=C(c3c[nH]c4ccccc34)C(=O)NC2=O)c2ccccc21 (stereo not drawn) [Bisl, Bisindolylmaleimide II]

Molecule: COc1ccc2[nH]cc(CCNC(C)=O)c2c1 [melatonin]
- PKC activity [7]: less potently
- inositol phosphate production, result in words [8]: inactive; also recorded: only at supra-physiological melatonin amount
- photoreceptor response (a-wave at 7 ms) ([1]; exogenous melatonin, ZT 6): significantly increased
- inositol phosphate production, result in words [9]: completely abolished
- EC50 [10]: 51 nM
- inositol phosphate production, result in words ([10]; HEK293T cells expressing MT2 alone): unable to modulate this pathway
- inhibition of cAMP production [11]: not impaired but rather improved
- changes in the dark-adapted ERG [12]: did not produce any changes
- amplitudes of a- and b-waves of the scotopic ERG [13]: increases the amplitudes
- PKC activity ([14]; HEK293T cells expressing MT1/MT2 heteromers, increasing concentrations): dose-dependently increased
- PKC activity with coexpressed MT2-P95L ([14]; MT1/MT2 heteromers plus dominant negative MT2-P95L mutant, 100 nM melatonin): potently inhibited

- effect on the melatonin-induced increase in the amplitude of the a- and b-wave [3]: prevented the increase
- amplitude of the a- and b-wave, compound alone [3]: did not produce any significant changes
Molecule: CC(=O)NCCc1c(Cc2ccccc2)[nH]c2ccccc12 [luzindole]

Molecule: Cl.Cl.O=S(=O)(NCCNC/C=C/c1ccc(Br)cc1)c1cccc2cnccc12 [H89, H-89 dihydrochloride hydrate]
- mimicking of the photoreceptor response to melatonin (a-wave at 7 ms) [1]: did not mimic
- effect on the melatonin-induced photoreceptor response (a-wave at 7 ms) [1]: did not affect

- BRET50 [15]: 3.48
- BRET50 [16]: 1.52
B1: mouse MT2-P95L mutant, Rluc8 and YFP fusion proteins (receptor, UniProt Q8CIQ6 1-364, looked up)
chain: MPENSSIPNCCEASGLAARPSWSGSAGARPPVTARAPWVAPMLSTVVVVTTAVDFVGNLLVILSVLRNRKLRNAGNLFVVSLALADLVIALYPYLLILVAIIRDGWVLGEAHCKASAFVMGLSVIGSVFNITAIAINRYCCICHSTTYHRVCSHWYTPIYISLVWLLTLVALVPNFFVGSLEYDPRIYSCTFIQTASTQYTAAVVAIHFLLPMAVVSFCYLRIWVLVLQARRKAKATRKLRLRPSDLRSFLTMFAVFVVFAICWAPLNCIGLAVAINPEAMALQVPEGLFVTSYFLAYFNSCLNAIVYGLLNQNFRREYKRILLAIWNTRRCIQHASKHCLTEERQGPTPPAARATVPVKEGAL
- BRET50 [17]: 2.61

Molecule: B2
- BRET50 [15]: 1.67

Molecule: B3
- BRET50 [17]: 0.71
